Laboratory results: article PMC7180572, “5-Alkylamino-N-phenylpyrazine-2-carboxamides: Design, Preparation, and Antimycobacterial Evaluation” (Molecules, 2020)
Converted amounts (≈) assume the structure as drawn. Where two headings read alike, the source gives them in different places.

Columns and labels:
[1] = system: Candida krusei ATCC 6258, CCM 8271; experiment: Antifungal microdilution broth method (EUCAST); assay type: cell-based; conditions: Pichia kudriavzevii
[2] = system: Aspergillus flavus CCM 8363; experiment: Antifungal microdilution broth method (EUCAST); assay type: cell-based; conditions: read-out: MIC AFla
[3] = system: Staphylococcus aureus methicillin resistant ATCC 43300, CCM 4750; experiment: microbe, parasite or virus in culture; assay type: cell-based; conditions: ATCC 43300 / CCM 4750 / MRSA, read-out: MIC MRSA
[4] = system: Mycobacterium smegmatis DSM 43465 (ATCC 607); experiment: Microdilution broth, modified Microplate Alamar Blue Assay, whole cell growth inhibition; assay type: cell-based; conditions: Mycolicibacterium smegmatis, read-out: MIC Mycobacterium smegmatis
[5] = system: HepG2 cells; experiment: HepG2 cytotoxicity, CellTiter 96 (MTS) assay; assay type: cell-based, human; conditions: for IC50: Homo sapiens, HepG2, 24 h, read-out: HepG2 IC50; for SI, selectivity index: IC50 (HepG2)/MIC against Mtb H37Ra (in µM)
[6] = system: Trichophyton interdigitale ATCC 9533, CCM 8377; experiment: Antifungal microdilution broth method (EUCAST); assay type: cell-based; conditions: read-out: MIC TI
[7] = system: Mycobacterium aurum DSM 43999 (ATCC 23366); experiment: Microdilution broth, modified Microplate Alamar Blue Assay, whole cell growth inhibition; assay type: cell-based; conditions: Mycolicibacterium aurum, read-out: MIC Mycobacterium aurum
[8] = system: Candida parapsilosis ATCC 22019, CCM 8260; experiment: Antifungal microdilution broth method (EUCAST); assay type: cell-based; conditions: Lodderomyces parapsilosis
[9] = system: Mycobacterium tuberculosis H37Ra ITM-M006710 (ATCC 9431); experiment: Microdilution broth, modified Microplate Alamar Blue Assay, whole cell growth inhibition; assay type: cell-based; conditions: Mycobacterium tuberculosis; in vitro, Middlebrook 7H9 broth, resazurin; read-out: MIC Mtb H37Ra
[10] = system: Enterococcus faecalis ATCC 29212, CCM 4224; experiment: Antibacterial microdilution broth method (EUCAST); assay type: cell-based; conditions: read-out: MIC EF
[11] = system: Aspergillus fumigatus ATCC 204305; experiment: Antifungal microdilution broth method (EUCAST); assay type: cell-based; conditions: read-out: MIC AF
[12] = system: Pseudomonas aeruginosa ATCC 27853, CCM 3955; experiment: Antibacterial microdilution broth method (EUCAST); assay type: cell-based; conditions: read-out: MIC PA
[13] = system: Acinetobacter baumanii ATCC 19606, DSM 30007; experiment: Antibacterial microdilution broth method (EUCAST); assay type: cell-based; conditions: Acinetobacter baumannii
[14] = system: Absidia corymbifera CCM 8077 (Lichtheimia corymbifera); experiment: Antifungal microdilution broth method (EUCAST); assay type: cell-based; conditions: read-out: MIC AC
[15] = system: Klebsiella pneumoniae ATCC 10031, CCM 4415; experiment: Antibacterial microdilution broth method (EUCAST)
[16] = system: Staphylococcus epidermidis ATCC 12228, CCM 4418; experiment: Antibacterial microdilution broth method (EUCAST); assay type: cell-based; conditions: read-out: MIC SE
[17] = system: Escherichia coli ATCC 25922, CCM 3954; experiment: Antibacterial microdilution broth method (EUCAST); assay type: cell-based; conditions: read-out: MIC EC
[18] = system: Staphylococcus aureus spp.aureus ATCC 29213, CCM 4223; experiment: Antibacterial microdilution broth method (EUCAST); assay type: cell-based; conditions: read-out: MIC SA
[19] = system: Candida albicans ATCC 24433, CCM 8320; experiment: Antifungal microdilution broth method (EUCAST); assay type: cell-based
[20] = system: Candida tropicalis ATCC 750, CCM 8264; experiment: Antifungal microdilution broth method (EUCAST); assay type: cell-based; conditions: read-out: MIC CT

CCCCCCCCNc1cnc(C(=O)Nc2cccc(O)c2)cn1 [Compound 2f, N-(3-hydroxyphenyl)-5-(octylamino)pyrazine-2-carboxamide]
MIC ([1]; 24 h, read-out: MIC CK): > 125 µM
MIC ([1]; 48 h, read-out: MIC CK): > 125 µM
MIC ([2]; CCM8363, 24 h): > 125 µM
MIC ([2]; CCM8363, 48 h): > 125 µM
MIC ([3]; 24 h): > 125 µM
MIC ([3]; 48 h): > 125 µM
MIC [4]: 250 µg/mL (≈ 730 µM)
IC50 [5]: > 50 µM
MIC ([6]; 72 h): > 125 µM
MIC ([6]; 120 h): > 125 µM
melting point: 223 to 225.9 °C
MIC [7]: ≥ 500 µg/mL
MIC ([8]; 24 h, read-out: MIC CP): > 125 µM
MIC ([8]; 48 h, read-out: MIC CP): > 125 µM
MIC [9]: ≥ 500 µg/mL
MIC ([10]; 24 h): > 125 µM
MIC ([10]; 48 h): > 125 µM
MIC ([11]; ATCC204305, 24 h): > 125 µM
MIC ([11]; ATCC204305, 48 h): > 125 µM
MIC ([12]; 72 h): > 125 µM
MIC ([12]; 120 h): > 125 µM
MIC ([13]; 24h): > 125 µM
MIC ([13]; 48h): > 125 µM
MIC ([14]; CCM8077, 24 h): > 125 µM
MIC ([14]; CCM8077, 48 h): > 125 µM
MIC KP ([15]; 24h): > 125 µM
MIC KP ([15]; 48h): > 125 µM
MIC ([16]; 24 h): > 125 µM
MIC ([16]; 48 h): > 125 µM
MIC ([17]; 24 h): > 125 µM
MIC ([17]; 48 h): > 125 µM
MIC ([18]; 24 h): > 125 µM
MIC ([18]; 48 h): > 125 µM
MIC ([19]; 24 h, read-out: MIC CA): > 125 µM
MIC ([19]; 48 h, read-out: MIC CA): > 125 µM
MIC ([20]; 24 h): > 125 µM
MIC ([20]; 48 h): > 125 µM

CCCNc1cnc(C(=O)Nc2ccc(O)cc2)cn1 [Compound 3a, N-(4-hydroxyphenyl)-5-(propylamino)pyrazine-2-carboxamide]
MIC ([1]; 24 h, read-out: MIC CK): > 500 µM
MIC ([1]; 48 h, read-out: MIC CK): > 500 µM
MIC ([2]; CCM8363, 24 h): > 500 µM
MIC ([2]; CCM8363, 48 h): > 500 µM
MIC ([3]; 24 h): > 500 µM
MIC ([3]; 48 h): > 500 µM
MIC [4]: ≥ 500 µg/mL
IC50 [5]: 410 µM
SI, selectivity index [5]: 7.18
MIC ([6]; 72 h): > 500 µM
MIC ([6]; 120 h): > 500 µM
melting point: 209.3 to 215.6 °C
MIC [7]: ≥ 500 µg/mL
MIC ([8]; 24 h, read-out: MIC CP): > 500 µM
MIC ([8]; 48 h, read-out: MIC CP): > 500 µM
MIC [9]: 15.6 µg/mL (≈ 57.4 µM)
MIC ([10]; 24 h): > 500 µM
MIC ([10]; 48 h): > 500 µM
MIC ([11]; ATCC204305, 24 h): > 500 µM
MIC ([11]; ATCC204305, 48 h): > 500 µM
MIC ([12]; 72 h): > 500 µM
MIC ([12]; 120 h): > 500 µM
MIC ([13]; 24h): > 500 µM
MIC ([13]; 48h): > 500 µM
MIC ([14]; CCM8077, 24 h): > 500 µM
MIC ([14]; CCM8077, 48 h): > 500 µM
MIC KP ([15]; 24h): > 500 µM
MIC KP ([15]; 48h): > 500 µM
MIC ([16]; 24 h): > 500 µM
MIC ([16]; 48 h): > 500 µM
MIC ([17]; 24 h): > 500 µM
MIC ([17]; 48 h): > 500 µM
MIC ([18]; 24 h): > 500 µM
MIC ([18]; 48 h): > 500 µM
MIC ([19]; 24 h, read-out: MIC CA): > 500 µM
MIC ([19]; 48 h, read-out: MIC CA): > 500 µM
MIC ([20]; 24 h): > 500 µM
MIC ([20]; 48 h): > 500 µM

CCCCNc1cnc(C(=O)Nc2ccc(O)cc2)cn1 [Compound 3b, 5-(Butylamino)pyrazine-N-(4-hydroxyphenyl)-2-carboxamide]
MIC ([1]; 24 h, read-out: MIC CK): > 250 µM
MIC ([1]; 48 h, read-out: MIC CK): > 250 µM
MIC ([1]; read-out: MIC CK (Candida krusei)): > 250 µM
MIC ([2]; CCM8363, 24 h): > 250 µM
MIC ([2]; CCM8363, 48 h): > 250 µM
MIC ([3]; 24 h): > 500 µM
MIC ([3]; 48 h): > 500 µM
MIC [4]: ≥ 500 µg/mL
IC50 [5]: 378 µM
SI, selectivity index [5]: 3.46
MIC ([6]; 72 h): > 250 µM
MIC ([6]; 120 h): > 250 µM
melting point: 208 to 211.4 °C
MIC [7]: ≥ 500 µg/mL
MIC ([8]; 24 h, read-out: MIC CP): 250 µM (≈ 71.6 µg/mL)
MIC ([8]; 48 h, read-out: MIC CP): 250 µM (≈ 71.6 µg/mL)
MIC ([8]; read-out: MIC CP (Candida parapsilosis)): 250 µM (≈ 71.6 µg/mL)
MIC [9]: 31.2 µg/mL (≈ 109 µM)
MIC ([10]; 24 h): > 500 µM
MIC ([10]; 48 h): > 500 µM
MIC ([11]; ATCC204305, 24 h): > 250 µM
MIC ([11]; ATCC204305, 48 h): > 250 µM
MIC ([12]; 72 h): > 500 µM
MIC ([12]; 120 h): > 500 µM
MIC ([13]; 24h): > 500 µM
MIC ([13]; 48h): > 500 µM
MIC ([14]; CCM8077, 24 h): > 250 µM
MIC ([14]; CCM8077, 48 h): > 250 µM
MIC KP ([15]; 24h): > 500 µM
MIC KP ([15]; 48h): > 500 µM
MIC ([16]; 24 h): > 500 µM
MIC ([16]; 48 h): > 500 µM
MIC ([17]; 24 h): > 500 µM
MIC ([17]; 48 h): > 500 µM
MIC ([18]; 24 h): > 500 µM
MIC ([18]; 48 h): > 500 µM
MIC ([19]; 24 h, read-out: MIC CA): 62.5 µM (≈ 17.9 µg/mL)
MIC ([19]; 48 h, read-out: MIC CA): 62.5 µM (≈ 17.9 µg/mL)
MIC ([19]; read-out: MIC CA (Candida albicans)): 62.5 µM (≈ 17.9 µg/mL)
MIC ([20]; 24 h): > 250 µM
MIC ([20]; 48 h): > 250 µM
